Tested on: Plasmodium berghei
Assay: Luciferase/luciferin-expressing antifolate-resistant parasites were used to infect a culture of HepG2 cells that were pre-incubated with compounds. Infected hepatocytes emit light due to the luciferase reaction. Assay results are presented as the percent inhibition of light emission compared to control. […]
Format: functional
Conditions: sporozoite; for IC90: read-out: LUCIFERASE INFECTION ASSAY - IC90
[1] = read-out: LUCIFERASE INFECTION ASSAY - IC50

Compound | IC50 [1] [µM] | IC90 [µM] | further results
CSc1ccccc1NC(=O)CN(C)c1nc(CSc2ccccc2)nc2sc3c(c12)CCC3 | > 10 | > 10 | 
Cn1c(C(C#N)C(=O)c2cc(-c3ccccc3)nc3ccccc23)nc2ccccc21 (stereo not drawn) |  | 7.46 | IC50 (HEPG2TOX_HILL_SLOPE 3.46, HEPG2TOX_R_SQUARED 0.527, PBLUC_HILL_SLOPE 3.86, PBLUC_R_SQUARED 0.794, read-out: LUCIFERASE INFECTION ASSAY - IC50): 4.22 µM
Cc1ccc(-c2nc(C(=O)N3CCCc4ccccc43)cs2)cc1 | 2.91 | > 10 | 
COC(=O)c1cccc(NC(=S)NC(=O)c2ccc(C(C)(C)C)cc2)c1 | > 8.91 | > 8.91 | 
Cc1ccc(C)c(OCCSc2ccc(C(=O)NC3CC3)cn2)c1 | 3.35 | 3.93 | 
CCNC(=O)C(C)NC(=O)c1cc(-c2ccccc2)nc2c1cnn2Cc1ccccc1Cl (stereo not drawn) |  | 0.0487 | IC50 (PBLUC_HILL_SLOPE 3.93, PBLUC_R_SQUARED 0.959, read-out: LUCIFERASE INFECTION ASSAY - IC50): 0.0279 µM
CNc1nc2cnc(Nc3ccc(C(F)(F)F)cc3)cc2n1CC1CC1 |  | > 10 | IC50 (PBLUC_HILL_SLOPE 1.2, PBLUC_R_SQUARED 0.377, read-out: LUCIFERASE INFECTION ASSAY - IC50): 2.12 µM
Cc1ccccc1N1CCN(Cc2csc(-c3ccccc3Cl)n2)CC1 |  | 3.67 | IC50 (HEPG2TOX_HILL_SLOPE 2.7, HEPG2TOX_R_SQUARED 0.815, PBLUC_HILL_SLOPE 21.2, PBLUC_R_SQUARED 0.497, read-out: LUCIFERASE INFECTION ASSAY - IC50): 3.3 µM
Cc1ccc(C(=N)NOC(=O)c2cccc(Cn3cc(C(F)(F)F)ccc3=O)c2)cc1 | > 7.69 | > 7.69 | 
Cc1ccc2ncnc(NCCc3ccccc3)c2c1 |  | 2.82 | IC50 (HEPG2TOX_HILL_SLOPE 0.814, HEPG2TOX_R_SQUARED 0.649, PBLUC_HILL_SLOPE 2.08, PBLUC_R_SQUARED 0.658, read-out: LUCIFERASE INFECTION ASSAY - IC50): 0.984 µM
COc1ccc(-c2cc(-c3cc(C)ccc3O)c3c(n2)-c2ccccc2C3=O)cc1 |  | > 10 | IC50 (PBLUC_HILL_SLOPE 6.66, 3.32, PBLUC_R_SQUARED 0.385, 0.180, read-out: LUCIFERASE INFECTION ASSAY - IC50): 9.15 µM
COc1cc(/C=C(/C(=O)c2cccs2)c2nc3ccccc3[nH]2)cc(OC)c1O |  | > 10 | IC50 (HEPG2TOX_HILL_SLOPE 9.16, HEPG2TOX_R_SQUARED 0.911, PBLUC_HILL_SLOPE 3.79, PBLUC_R_SQUARED 0.1, read-out: LUCIFERASE INFECTION ASSAY - IC50): 7.39 µM
Cc1cc2oc(=O)cc(COC(=O)c3cccc(S(=O)(=O)N(Cc4ccccc4)c4cccc(C(F)(F)F)c4)c3)c2cc1C(C)C | > 10 | > 10 | 
O=C(Nc1ccc(Cl)c(Cl)c1)OCCNC(=O)c1cccc(S(=O)(=O)N2CCCC2)c1 |  | 9.3 | IC50 (HEPG2TOX_HILL_SLOPE 9.3, HEPG2TOX_R_SQUARED 0.805, PBLUC_HILL_SLOPE 3.66, PBLUC_R_SQUARED 0.453, read-out: LUCIFERASE INFECTION ASSAY - IC50): 5.1 µM
CN1CCCN(c2ncnc3cc(-c4ccc(Cl)cc4)sc23)CC1 |  | > 10 | IC50 (PBLUC_HILL_SLOPE 23.2, PBLUC_R_SQUARED 0.558, read-out: LUCIFERASE INFECTION ASSAY - IC50): 9.79 µM
O=C1OC(C=NC23CC4CC(CC(C4)C2)C3)c2ccccc21 (stereo not drawn) |  | > 11.2 | IC50 (PBLUC_HILL_SLOPE 9.77, PBLUC_R_SQUARED 0.255, read-out: LUCIFERASE INFECTION ASSAY - IC50): 9.81 µM
CC(C)C(=O)NC1CCCC(C)C1C (stereo not drawn) | > 2 | > 2 | 
CCOc1cc2ncc(C#N)c(Nc3ccc(F)c(Cl)c3)c2cc1N |  | 6.3 | IC50 (HEPG2TOX_HILL_SLOPE 1.25, HEPG2TOX_R_SQUARED 0.941, PBLUC_HILL_SLOPE 3.96, PBLUC_R_SQUARED 0.532, read-out: LUCIFERASE INFECTION ASSAY - IC50): 3.61 µM
O=C(Cn1cnc2sccc2c1=O)Nc1nc(-c2ccccn2)cs1 |  | > 10 | IC50 (HEPG2TOX_HILL_SLOPE 0.285, HEPG2TOX_R_SQUARED 0.277, PBLUC_HILL_SLOPE 15.4, PBLUC_R_SQUARED 0.28, read-out: LUCIFERASE INFECTION ASSAY - IC50): 9.25 µM
Cc1cc(-c2csc(Cc3ccccc3)n2)c(C)n1NC(=O)c1nn(C)c(=O)c2ccccc12 | > 10 | > 10 | 
CS(=O)(=O)c1ccc(Oc2ccc(-n3ccnc3)cc2)c([N+](=O)[O-])c1 | > 10 | > 10 | 
COc1ccc(CNc2ccc3ncc(-c4ccc(OC)c(OC)c4)n3n2)cc1 |  | 4.78 | IC50 (HEPG2TOX_HILL_SLOPE 2.6, HEPG2TOX_R_SQUARED 0.69, PBLUC_HILL_SLOPE 12.3, PBLUC_R_SQUARED 0.459, read-out: LUCIFERASE INFECTION ASSAY - IC50): 4 µM

Compound | IC50 [1] [µM] | IC90 [µM] | further results
COc1ccc(C2CC(C)=NN2c2nc(-c3ccc(F)cc3)cs2)cc1OC (stereo not drawn) |  | > 8.3 | IC50 (PBLUC_HILL_SLOPE 2.46, PBLUC_R_SQUARED 0.655, read-out: LUCIFERASE INFECTION ASSAY - IC50): 4.62 µM
N#Cc1cc(NC(=O)c2ccc(F)cc2)ccc1Sc1cccc(C(F)(F)F)c1 | 3.07 | > 7.93 | 
Cc1cccc(C)c1-n1c(=C(C#N)C#N)s/c(=C/c2ccc(Cl)c([N+](=O)[O-])c2)c1=O |  | 9.8 | IC50 (FFLUC_HILL_SLOPE 2.98, FFLUC_R_SQUARED 0.465, HEPG2TOX_HILL_SLOPE 7.11, HEPG2TOX_R_SQUARED 0.701, PBLUC_HILL_SLOPE 34, PBLUC_R_SQUARED 0.394, read-out: LUCIFERASE INFECTION ASSAY - IC50): 9.19 µM
CCn1c(NC(=O)Cc2csc(-n3c(C)ccc3C)n2)nc2ccccc21 |  | > 10 | IC50 (HEPG2TOX_HILL_SLOPE 6.15, HEPG2TOX_R_SQUARED 0.156, PBLUC_HILL_SLOPE 14.1, PBLUC_R_SQUARED 0.172, read-out: LUCIFERASE INFECTION ASSAY - IC50): 8.84 µM
O=C(NC1CCCCC1)c1ccccc1-n1ncc(Cl)c(Cl)c1=O |  | 3.79 | IC50 (FFLUC_HILL_SLOPE 2.05, FFLUC_R_SQUARED 0.721, HEPG2TOX_HILL_SLOPE 15.4, HEPG2TOX_R_SQUARED 0.582, PBLUC_HILL_SLOPE 17.3, PBLUC_R_SQUARED 0.758, read-out: LUCIFERASE INFECTION ASSAY - IC50): 3.34 µM
CS(=O)(=O)c1ccc(-c2cc(C3(CNc4cccc(Cl)c4)CC3)ccn2)cc1 | > 10 | > 10 | 
C=CCN(c1ccccc1)S(=O)(=O)c1cccc(C(=O)Nc2ccc(CCCC)cc2)c1 |  | > 10 | IC50 (FFLUC_HILL_SLOPE 3.89, FFLUC_R_SQUARED 0.431, PBLUC_HILL_SLOPE 2.64, PBLUC_R_SQUARED 0.773, read-out: LUCIFERASE INFECTION ASSAY - IC50): 5.84 µM
N#CC(C(=O)CSc1nnc(-c2ccc(F)cc2)c2ccccc12)=C1Nc2ccccc2N1 |  | > 10 | IC50 (FFLUC_HILL_SLOPE 12, FFLUC_R_SQUARED 0.136, read-out: LUCIFERASE INFECTION ASSAY - IC50): > 10 µM
CCOC(=O)c1cc(-c2ccc(OC)cc2)nn1-c1cccc(C)c1 |  | > 10 | IC50 (PBLUC_HILL_SLOPE 0.992, PBLUC_R_SQUARED 0.815, read-out: LUCIFERASE INFECTION ASSAY - IC50): > 10 µM
Cc1cc2ccccn2c1C(=O)c1cc2c(C)nn(-c3ccccc3)c2s1 | > 10 | > 10 | 
C/C(=N\Nc1nc2ccccc2[nH]1)c1ccc(N2CCOCC2)cc1 | > 10 | > 10 | 
CC(C)n1ncc2cc(C(=O)Nc3nc4c(s3)CCCC4)cnc21 |  | 0.68 | IC50 (FFLUC_HILL_SLOPE 1.2, FFLUC_R_SQUARED 0.643, HEPG2TOX_HILL_SLOPE 0.617, HEPG2TOX_R_SQUARED 0.917, PBLUC_HILL_SLOPE 0.702, PBLUC_R_SQUARED 0.926, read-out: LUCIFERASE INFECTION ASSAY - IC50): 0.0298 µM
C=CCn1c(-c2ccoc2C)nn(CN(C)Cc2nc3ccccc3s2)c1=S | > 10 | > 10 | 
O=S(=O)(c1ccc2ccccc2c1)N1CCN(c2ncc(C(F)(F)F)cc2Cl)CC1 | > 7.24 | > 7.24 | 
CCOC(=O)c1sc(N)c(C#N)c1CSc1ncc(C(F)(F)F)cc1Cl |  | > 10 | IC50 (PBLUC_HILL_SLOPE 1.96, PBLUC_R_SQUARED 0.0831, read-out: LUCIFERASE INFECTION ASSAY - IC50): > 10 µM
Cc1nn(CC(C)C)c(C)c1CC(=O)NCc1ccccc1Cn1cccn1 | > 10 | > 10 | 
CCCCNC(=O)c1c(NC(=O)c2ccc(OC)cc2)nc2ccc(C)cn12 |  | 8.55 | IC50 (HEPG2TOX_HILL_SLOPE 7.85, HEPG2TOX_R_SQUARED 0.829, PBLUC_HILL_SLOPE 17, PBLUC_R_SQUARED 0.0919, read-out: LUCIFERASE INFECTION ASSAY - IC50): 7.51 µM
Cc1cc(C)n2ncc(C(=O)Nc3cccc(/C=C/c4ccccn4)c3)c2n1 |  | 8.17 | IC50 (PBLUC_HILL_SLOPE 1.28, PBLUC_R_SQUARED 0.742, read-out: LUCIFERASE INFECTION ASSAY - IC50): 1.46 µM
COCCN(Cc1nnc(-c2cccs2)o1)C(=O)c1cc(C2CC2)nc2c1cnn2C(C)C | > 10 | > 10 | 
O=C1N=C(NC2CCCCC2)S/C1=C\c1cccc(C(F)(F)F)c1 | > 10 | > 10 | 
CC(C)(C)c1ccc(NC(=O)c2sc3nc4c(c(-c5cccnc5)c3c2N)CCC4)cc1 | > 7.46 | > 7.46 | 
CCN(CC)S(=O)(=O)c1ccc(N/N=C/c2c(-c3ccccc3)[nH]c3ccccc23)nc1 |  | > 10 | IC50 (PBLUC_HILL_SLOPE 2.64, PBLUC_R_SQUARED 0.392, read-out: LUCIFERASE INFECTION ASSAY - IC50): 4.46 µM
